Values quoted from earlier work in patent publication US11252971B2, “Antimicrobial packaging films” (Cryovac, LLC, priority 2017, dated 2022).

Details: GRAS by the U.S. Food and Drug Administration

In the case of `CCCCCCCCCCCC(=O)N[C@@H](CCCNC(=N)N)C(=O)OCC.Cl` [LAE, ethyl-N^α-dodecanoyl-L-arginate.HCl], the Toxicity is listed as “nontoxic”.
